Consider three compounds from patent US8071611B2, “Spirocyclic heterocyclic derivatives and methods of their use” (Adolor Corporation, priority 2003, dated 2011).

Counter-ions that a name gives are not always drawn.

For test [1], the target named is T1, cloned human μ opioid receptor (Homo sapiens, UniProt P35372).
T1 construct: expressed in transfected cells; host or cells: CHO cells (membranes)
The test is described as follows: Receptor binding: inhibition of [3H]diprenorphine binding to cloned human μ opioid receptor. On the procedure:
(§1) IC50 values were obtained by nonlinear analysis of the data using GraphPad Prism version 3.00 for Windows (GraphPad Software, San Diego). Ki values were obtained by Cheng-Prusoff corrections of IC50 values.
(§2) After dilution in buffer A and homogenization as before, membrane proteins (10-80 μg) in 250 μL were added to mixtures containing test compound and [^3H]diprenorphine (0.5 to 1.0 nM, 40,000 to 50,000 dpm) in 250 μL of buffer A in 96-well deep-well polystyrene titer plates (Beckman). After incubation at room temperature for one hour, the samples were filtered through GF/B filters that had been presoaked in a solution of 0.5% (w/v) polyethylenimine and 0.1% (w/v) bovine serum albumin in water. The filters were rinsed 4 times with 1 mL of cold 50 mM Tris HCl, pH 7.8 and radioactivity remaining on the filters determined by scintillation spectroscopy. Nonspecific binding was determined by the minimum values of the titration curves and was confirmed by separate assay wells containing 10 μM naloxone.
(§3) To determine the equilibrium dissociation constant for the inhibitors (Ki), radioligand bound (cpm) in the presence of various concentrations of test compounds was measured. The concentration to give half-maximal inhibition (EC50) of radioligand binding was determined from a best nonlinear regression fit to the following equation,
(§4) The nonlinear regression fit was performed using the program Prism® (GraphPad Software, San Diego, Calif.). The Ki values were then determined from the EC50 values by the following equation,
(§5) [formula] where [ligand] is the concentration of radioligand and Kd is the equilibrium dissociation constant for the radioligand.
as §1
(§6) [formula] where [ligand] is the concentration of radioligand and Kd is the equilibrium dissociation constant for the radioligand. Receptor-Mediated [^35S]GTP[…]S Binding

Test [2] has as its target T2, cloned human κ opioid receptor (Homo sapiens, UniProt P41145).
T2 construct: expressed in transfected cells; host or cells: CHO cells (membranes)
The test is described as follows: Receptor binding: inhibition of [3H]diprenorphine binding to cloned human κ opioid receptor. The following applies: for inhibition at 10 µM: read-out: % Inhibition at 10 μM (κ). On the procedure: as §1, §2, §3, §4, §5, §1, §6

The subject of test [3] is forced swim behaviour in rats. Description: Forced swim assay. The class given is in vivo, Male Sprague-Dawley rats. Particulars: percent change ±SEM relative to vehicle-treated rats. An excerpt:
Male Sprague-Dawley rats (approximately 200 g) are placed in a tank of room temperature water for a fifteen min practice swim. Every five sec during the first five min of the practice swim, the rats are rated as immobile (floating with motion needed to keep head above the water), swimming (movement across the swim), or climbing (actively trying to climb out of the tank of water, upward directed movements of the forepaws). The percentage of time the rats spent in each of these responses is calculated.
Approximately 24 h after the practice swim, the rats are treated with vehicle or test compound and placed in the tank for a 5 min swim. As was the case with the practice swim, the rats are rated as immobile, swimming, or climbing during the test swim and the percentage of time spent in each of these responses is calculated. The data is analyzed by one-way ANOVA with post-hoc analysis to compare the behavioral response after vehicle treatment to the behavioral response after drug treatment for each of the three behavioral responses. The level of significance is set at p<0.05.

Test [4] has as its system FCA-induced hyperalgesia in rats. The test is described as follows: Freunds Complete Adjuvant (FCA)-induced hyperalgesia, paw pressure thresholds. The test is classed as in vivo. On the procedure: Rats were injected intraplantar with FCA and 24 h later treated with tested compounds administered orally. Paw Pressure Thresholds (PPT) was assessed 30, 60, 120, and 240 minutes after drug treatment.

Test [5] has as its system acetic acid-induced writhing in mice. The test is described as follows: Acetic acid-induced writhing. The test is classed as in vivo, Male ICR mice. Particulars: 30 mg/kg (s.c.). On the procedure: Male ICR mice weighing 20-25 g are injected s.c. with either vehicle or test compound 15 min before they are injected intraperitoneally with 0.6% acetic acid. […] treatment with acetic acid, the number of writhes is counted for 10 minutes. Dose response curves are expressed as the percent inhibition of acetic acid induced writhing, when compared to the mean number of writhes observed in the vehicle-treated mice. The mean percent inhibition (% I) of acetic acid-induced writhing for drug-treated mice is calculated according to the following formula: […]
The mean individual response is the mean number of writhes in mice treated with test compound. The mean vehicle response is the mean number of writhes in mice treated with vehicle.
Male ICR mice weighing 20-25 g are injected s.c. with either vehicle or test compound 15 minutes before they are injected intraperitoneally with 0.6% acetic acid. At 5 minutes after treatment with acetic acid, the number of writhes is counted for 10 minutes. Dose response curves are expressed as the percent inhibition of acetic acid induced writhing, when compared to the mean number of writhes observed in the vehicle-treated mice. The mean percent inhibition (% I) of acetic acid-induced writhing for drug-treated mice is calculated according to the following formula:
[formula] […]

Test [6] has as its system castor oil-induced diarrhea in mice. The test is described as follows: Castor oil-induced diarrhea. Particulars: Mus musculus, sc, read-out: ED50 (incidence of castor oil-induced diarrhea). The test is classed as in vivo. On the procedure: Mice were fasted overnight with water ad libitum. Mice were weighed, dosed orally with 0.6 mL of castor oil and placed in individual cubicles (11 cm×10 cm) lined with a pre-weighed sheet of absorbent paper. Thirty min after receiving castor oil, mice were injected s.c with tested compound. Seventy-five min after dosing with castor oil, the mice and absorbent paper were reweighed and the number of mice with diarrhea (defined as wet, unformed stool) was determined.
Percent inhibition by tested compounds in castor oil-induced diarrhea assay was determined by the following formula: […]

In test [7] the target is T3, cloned human δ opioid receptor (Homo sapiens, UniProt P41143).
T3 construct: expressed in transfected cells; host or cells: CHO cells (membranes)
Description: Receptor binding: inhibition of [3H]diprenorphine binding to cloned human δ opioid receptor. On the procedure:
as §1, §2, §3, §4, §5, §1, §6

Test [8] deals with T3, cloned human δ opioid receptor. The test is described as follows: Receptor-mediated [35S]GTPγS binding, membranes containing cloned human δ opioid receptors. The class given is biochemical. The following applies: agonist stimulation of [35S]GTPγS binding. On the procedure: (§7) Assays are carried out in 96-well FlashPlates® (Perkin Elmer Life Sciences, Inc, Boston, Mass.). Membranes prepared from CHO cells expressing the appropriate receptor (50-100 μg of protein) are added to assay mixtures containing agonist with or without antagonists, 100 μM [^35S]GTPγS (approx. 100,000 dpm), 3.0 μM GDP, 75 mM NaCl, 15 mM MgCl2, 1.0 mM ethylene glycol-bis(β-aminoethyl ether)-N,N,N′,N′-tetracetic acid, 1.1 mM dithiothreitol, 10 μg/mL leupeptin, 10 μg/mL pepstatin A, 200 μg/mL bacitracin, and 0.5 μg/mL aprotinin in 50 mM Tris-HCl buffer, pH 7.8. After incubation at room temperature for one hour, the plates are sealed, centrifuged at 800×g in a swinging bucket rotor for 5 min and bound radioactivity determined with a TopCount microplate scintillation counter (Packard Instrument Co., Meriden, Conn.).
as §7, with “pM [^35S]GTP[…]S” for “μM [^35S]GTPγS”

T2 sequence (P41145 whole entry): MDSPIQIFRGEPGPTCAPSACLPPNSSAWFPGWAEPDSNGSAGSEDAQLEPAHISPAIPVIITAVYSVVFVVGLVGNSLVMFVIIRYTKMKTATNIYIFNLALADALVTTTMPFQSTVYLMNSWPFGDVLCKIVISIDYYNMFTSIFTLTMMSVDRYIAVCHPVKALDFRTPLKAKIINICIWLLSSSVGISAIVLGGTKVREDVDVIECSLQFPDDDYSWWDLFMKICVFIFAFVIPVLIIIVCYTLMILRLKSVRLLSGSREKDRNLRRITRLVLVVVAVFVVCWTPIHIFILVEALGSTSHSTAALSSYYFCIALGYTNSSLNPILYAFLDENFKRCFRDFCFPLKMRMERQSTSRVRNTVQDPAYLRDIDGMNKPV
T3 sequence (P41143 whole entry): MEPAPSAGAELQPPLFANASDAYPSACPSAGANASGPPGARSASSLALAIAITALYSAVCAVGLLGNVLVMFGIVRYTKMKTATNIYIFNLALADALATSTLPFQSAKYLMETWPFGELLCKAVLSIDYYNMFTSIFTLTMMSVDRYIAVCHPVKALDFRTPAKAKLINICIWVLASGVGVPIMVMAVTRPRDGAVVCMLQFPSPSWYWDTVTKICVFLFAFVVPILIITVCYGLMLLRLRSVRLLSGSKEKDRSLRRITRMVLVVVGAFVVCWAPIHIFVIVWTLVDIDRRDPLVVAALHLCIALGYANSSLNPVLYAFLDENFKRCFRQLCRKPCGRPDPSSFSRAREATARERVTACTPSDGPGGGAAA
T1 sequence (P35372 whole entry): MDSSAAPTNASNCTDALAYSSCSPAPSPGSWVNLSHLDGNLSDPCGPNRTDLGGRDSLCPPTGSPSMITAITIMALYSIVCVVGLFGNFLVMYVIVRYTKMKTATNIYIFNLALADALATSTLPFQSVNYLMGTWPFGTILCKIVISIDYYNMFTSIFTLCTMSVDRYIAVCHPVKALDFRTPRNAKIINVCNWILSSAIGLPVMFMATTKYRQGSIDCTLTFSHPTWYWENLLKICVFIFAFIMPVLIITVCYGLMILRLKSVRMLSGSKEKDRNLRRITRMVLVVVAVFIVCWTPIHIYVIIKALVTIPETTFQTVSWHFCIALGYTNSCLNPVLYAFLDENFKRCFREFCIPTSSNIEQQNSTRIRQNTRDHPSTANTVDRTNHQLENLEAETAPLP

For `CCN(CC)C(=O)c1ccc(C2=CC3(CCNCC3)Oc3ccccc32)cc1` [Example 1A], the Ki is 980 nM in test [1] and over 1000 nM in test [2]. For the same compound, the “IMMOBILITY (% Decrease)” value was found to be 17 ± 10% in test [3] (3 mg/kg p.o.) and 43 ± 13 % in test [3] (30 mg/kg p.o.). Further, the “SWIMMING (% Increase)” value in test [3] (3 mg/kg p.o.) stood at 37 ± 17%; in test [3] (30 mg/kg p.o.), 137 ± 35 %.
As to `CCN(CC)C(=O)c1ccc(C2=CC3(CCNCC3)Oc3ccccc32)cc1` [Example Z1, 4-[(4-N,N-diethylaminocarbonyl)phenyl]-spiro[2H,1-benzopyran-2,4′-piperidine]hydrochloride], the inhibition at 10 µM in test [2] is 32%. For the same compound, the ED50 in test [4] (Rattus norvegicus, po) turned out to be 2.5 mg/kg; in test [6] it was 8.7 mg/kg. In test [4] (inflamed paw, 1-2 h after oral administration), the “increase of Paw Pressure Thresholds (PPT) in the inflamed paw” value is reported as 170-180%. Besides, in test [5], the “inhibition of acetic acid-induced writhing” value turned out to be 69%.
In test [7], `O=C(O)CCCn1nnc(-c2ccc(C3=CC4(CCNCC4)Oc4ccccc43)cc2)n1` [Example Z11, 4-[4-(4-carboxypropyl-tetrazol-2-yl)phenyl]-spiro[2H,1-benzopyran-2,4′-piperidine]] came in with a Ki of 8 nM. Besides, the results for the inhibition at 10 µM in test [1] (read-out: % Inhibition at 10 μM (μ)) and in test [2] were 3.7% and -3.3%, respectively. The same compound gave an EC50 in test [8] of 140 nM.
